Measurements taken from article PMC2866155 (Chemical biology & drug design, 2009).

Legend:
Format in all cases: cell-based
HCT116 cells = assay: MTT antiproliferative assay, HCT116; conditions: Homo sapiens, HCT-116, 72 h, read-out: HCT116 IC50
MCF-7 cells = assay: MTT antiproliferative assay, MCF-7; conditions: Homo sapiens, MCF7, 72 h, read-out: MCF-7 IC50
SKBR-3 cells = assay: MTT antiproliferative assay, SKBR-3; conditions: Homo sapiens, SK-BR-3, 72 h, read-out: SKBR-3 IC50

Compound `COc1ccc(C=Cc2cc(NC(=O)c3ccc(C(N)=NO)cc3)cc(OC)c2)cc1` [HERP6, 4-(N'-hydroxycarbamimidoyl)-N-[3-methoxy-5-(4-methoxystyryl)phenyl] benzamide] has an IC50 (HCT116 cells) of 11.9 µM, an IC50 (MCF-7 cells) of 9.2 µM and an IC50 (SKBR-3 cells) of 1.62 µM.
